The text below walks through data of patent publication US20120040914A1, “ENHANCING EFFECTIVENESS OF GLIAL CANCER THERAPIES” (priority 2010, published 2012).

One test has as its system C6 glioma cells. The test is described as follows: salinomycin sensitivity, cell viability by Calcein-am assay. The format is cell-based. To be noted: 10 microM TBSA, 48 hrs, leftward shift of the concentration response. As to the method:
C6 glioma cells were treated with increasing concentrations of the cancer therapeutic, salinamycin, a drug with a high profile of selectivity for cancer stem cells. […] The data are presented as a percentage of cell viability seen in non-TBSA/salinamycin treated cells. The group labeled as Triton-X serves as our cell death-inducing control.

Test [1] has as its system Temozolomide-resistant T98g human glioblastoma cells. Description: sensitivity to ionizing radiation, Calcein-am assay. The format is cell-based.
The subject of another test is hippocampal HT-22 cells. The test is described as follows: glutamate-induced cytotoxicity, Calcein-am assay. The format is cell-based.
Test [2] relates to A172 human glioblastoma cells. The test is described as follows: sensitivity to ionizing radiation, Calcein-am assay. The format is cell-based. The conditions noted are these: total dose of 5 Gy at 6.3 Gy/min, 6 hrs after radiation. As to the method:
Cell viability was measured using the Calcein-am assay following 6 hrs after the administration of the dose of ionizing radiation. The data are presented as a percentage of cell viability seen in the non-radiated (black bars) or radiated (checkered bars) in the absence of T-BSA.

The subject of test [3] is putative mAR in A172 human glioblastoma cells. The conditions noted are these: unlabeled DHT as displacer, relative to T-BSA incubated A172 cells.
Description: The population histograms depict the frequency distribution of the cells labeled with a fluorescently tagged, BSA-conjugated testosterone (Testosterone-BSA-FITC, abbreviated as T-BSA), or T-BSA in the presence of unlabeled DHT, serving as the “displacer”. […] Also note that the x-axis is on a log scale.
Test [4] deals with A172 human glioblastoma cell line. Description: cells. The conditions noted are these: A 172, read-out: reduction in cell viability (calcein fluorescence).

Take “TBSA: BSA-conjugated testosterone, membrane impermeable androgen, ligand/activator of the membrane androgen receptor (mAR)”: in the test on C6 glioma cells, the “effect on sensitivity to salinamycin (concentration response of cell viability)” value is given as “increased the sensitivity of the cells to salinamycin”. Besides, the “sensitization to ionizing radiation (cell viability)” value is reported as “ineffective at sensitizing the cells to ionizing radiation” in test [1] (5 Gy, 100 nM-40 microM TBSA, 6 hr or 24 hr post radiation); “effective at sensitizing these cells to ionizing radiation” in test [1] (10 Gy); “enhanced the sensitivity of the A172 glioblastoma cells to the cytotoxic effects of ionizing radiation” in test [2]. In test [1] (20 Gy), the “lowest concentration at which the sensitizing effect was noted” value is 1 µM. Also, the “cell viability, by itself” value in the test with hippocampal HT-22 cells (TBSA alone, Calcein-am assay) was “had no effect on cell viability”. For the same compound, in the test with hippocampal HT-22 cells (TBSA plus glutamate), the “effect on glutamate-induced cell death” value is “protected against glutamate-induced cytotoxicity”.
For the compound `C[C@]12CCC(=O)C[C@@H]1CC[C@@H]1[C@@H]2CC[C@]2(C)[C@@H](O)CC[C@@H]12` [DHT, Dihydrotestosterone], the “displacement of Testosterone-BSA-FITC (T-BSA) binding, fluorescence intensity” value in test [3] is on record as “clear leftward shift of fluorescence intensity”.
With `Cn1nnc2c(C(N)=O)ncn2c1=O` [TMZ, Temozolomide], the cytotoxicity at 5000 µM in test [4] was around 35%.
